The record followed here is EP3345917A1, “ANTIPROTOZOAL COMPOUNDS” (Bacoba AG, priority 2017, dated 2018).

Non-standard residues stand in square brackets, D forms with d. Residues, ends and D or L forms follow the SMILES beside them. *: point of attachment. NH((S)CH(Me)CH2NMe2) = C[C@@H](CN(C)C)N*; Cyclopentanecarbonyl = O=C(C1CCCC1)*; Gly(octyl) = CCCCCCCC[C@H](N)C(=O)O; X11 = C[C@@H]1CN(CCN*)C[C@H](C)O1; Lauroyl = CCCCCCCCCCCC(=O)*; X4 = O=C(C1CCc2ccccc2C1)*; Hexanoyl = CCCCCC(=O)*; Aib = CC(C)(N)C(=O)O; X6 = CCCN(CCC)CCN*; βAla = NCCC(=O)O

For data set [1], the system named is Trypanosoma brucei rhodesiense (STIB 900 strain). The data set is described as follows: Alamar Blue assay against Trypanosoma brucei rhodesiense grown in axenic medium. The class given is cell-based. The settings on record: In vitro inhibition, read-out: T.b.rhod. Put shortly:
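Alamar Blue-based IC50 determination, in triplicate, on axenically grown STIB 900 trypanosomes. Melarsoprol included as reference.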
(Alamar Blue is a resazurin reagent that responds to reducing activity.)

Data set [2] deals with Trypanosoma cruzi trypomastigote forms (Tulahuen strain). The data set is described as follows: Intracellular Trypanosoma cruzi assay in L6-cells, beta-galactosidase/CPRG readout. The class given is cell-based. The following applies: In vitro inhibition, read-out: T.cruzi. The method, boiled down:
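Readout was β-galactosidase cleavage of CPRG, read photometrically at 540 nm after 2–6 h colour development, giving IC50 values. Parasites: LacZ-expressing Tulahuen C2C4 strain grown in rat L6 myoblasts; run in triplicate.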

Data set [3] concerns Axenically grown Leishmania donovani amastigotes (strain MHOM/ET/67/L82). The data set is described as follows: Axenic Leishmania donovani amastigote resazurin assay. The class given is cell-based. The following applies: In vitro inhibition, read-out: L.don. ax. Put shortly:
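IC50 values derive from resazurin fluorescence (ex 536 nm, em 588 nm), expressed relative to the negative control, after 2-4 hours of plate development. Axenic amastigotes of strain MHOM/ET/67/L82 were used; each test run in triplicate.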

Data set [4] has as its system intracellular Leishmania donovani (L.don. InMac). The data set is described as follows: Intracellular Leishmania donovani assay (L.don. InMac). The class given is cell-based. The following applies: In vitro inhibition. The source says: (§1) Tests were done in triplicate.
A further data set has as its system Plasmodium falciparum. The data set is described as follows: 3H-hypoxanthine incorporation assay against Plasmodium falciparum. The class given is cell-based. The following applies: In vitro inhibition, read-out: P.falc NF5. How it is done:
as §1
IC50 values were calculated by linear interpolation.

Data set [5] in a line: Cytotoxicity assay on L6-cells (Alamar Blue). The settings on record: rat, Cytotox L6, Cytotoxicity against rat myoblast cells (L6).

Take `CCCCCCCC[C@H](NC(=O)C1CCCC1)C(=O)N[C@H](C(=O)NC(C)(C)C(=O)N[C@@H](CC(C)C)C(=O)N[C@@H](CC(C)C)C(=O)NC(C)(C)C(=O)NC(C)(C)C(=O)NCCC(=O)N[C@@H](C)CN(C)C)[C@@H](C)O` [Compound 5641, (2S)-2-(cyclopentylformamido)-N-[(1S,2R)-1-[(1-{[(1S)-1-{[(1S)-1-{[1-({1-[(2-{[(2S)-1-(dimethylamino)propan-2-yl]carbamoyl}ethyl)carbamoyl]-1-methylethyl}carbamoyl)-1-methylethyl]carbamoyl}-3-methylbutyl]carbamoyl}-3-methylbutyl]carbamoyl}-1-methylethyl)carbamoyl]-2-hydroxypropyl]decanamide] (Cyclopentanecarbonyl-[Gly(octyl)]T[Aib]LL[Aib][Aib][βAla]-{NH((S)CH(Me)CH2NMe2)}): the IC50 was determined as 3.9 nM in data set [1]; 1400 nM in data set [2]; 8.2 nM in data set [3]; 862 nM in data set [4]; 72.9 nM in the data set with Plasmodium falciparum. The molecule also gave an IC50 at 70 h in data set [5] of 1670 nM.

Take `CCCCCCCCCCCC(=O)N1CCC[C@H]1C(=O)N[C@@H](CCCCCCCC)C(=O)N[C@@H](CC(C)C)C(=O)NC(C)(C)C(=O)N[C@@H](CC(C)C)C(=O)N[C@@H](CC(C)C)C(=O)NC(C)(C)C(=O)NC(C)(C)C(=O)NCCC(=O)N[C@@H](C)CN(C)C` [Compound 5651, (2S)-N-[(1S)-1-[(1-{[(1S)-1-{[(1S)-1-{[1-({1-[(2-{[(2S)-1-(dimethylamino)propan-2-yl]carbamoyl}ethyl)carbamoyl]-1-methylethyl}carbamoyl)-1-methylethyl]carbamoyl}-3-methylbutyl]carbamoyl}-3-methylbutyl]carbamoyl}-1-methylethyl)carbamoyl]-3-methylbutyl]-2-{[(2S)-1-dodecanoylpyrrolidin-2-yl]formamido}decanamide] (Lauroyl-P[Gly(octyl)]L[Aib]LL[Aib][Aib][βAla]-{NH((S)CH(Me)CH2NMe2)}): the IC50 in data set [1] was 3.3 nM; in data set [2], 1370 nM; in data set [3], 53 nM; in data set [4], 707 nM; in the data set with Plasmodium falciparum it was 0.8 nM. This molecule also displayed an IC50 at 70 h in data set [5] of 498 nM.

Take `CCCCCCCC[C@H](NC(=O)C1CCc2ccccc2C1)C(=O)N[C@@H](CC(C)C)C(=O)NC(C)(C)C(=O)N[C@@H](CC(C)C)C(=O)N[C@@H](CC(C)C)C(=O)NC(C)(C)C(=O)NC(C)(C)C(=O)NCCC(=O)N[C@@H](C)CN(C)C` (stereo partly drawn) [Compound 5944, (2S)-N-[(1S)-1-[(1-{[(1S)-1-{[(1S)-1-{[1-({1-[(2-{[(2S)-1-(dimethylamino)propan-2-yl]carbamoyl}ethyl)carbamoyl]-1-methylethyl}carbamoyl)-1-methylethyl]carbamoyl}-3-methylbutyl]carbamoyl}-3-methylbutyl]carbamoyl}-1-methylethyl)carbamoyl]-3-methylbutyl]-2-[(1,2,3,4-tetrahydronaphthalen-2-yl)formamido]decanamide] (X4-[Gly(octyl)]L[Aib]LL[Aib][Aib][βAla]-{NH((S)CH(Me)CH2NMe2)}): the IC50 in data set [1] was 0.1 nM; in data set [2], 5 nM; in data set [3] it was 0.6 nM; in data set [4] it was less than 36.5 nM; in the data set with Plasmodium falciparum, 42500 nM. Moreover, in data set [5], the IC50 at 70 h came out at 137 nM.

Consider `CCCCCCCC[C@H](NC(=O)[C@@H]1CCCN1C(=O)CCCCC)C(=O)N[C@@H](CC(C)C)C(=O)NC(C)(C)C(=O)N[C@@H](CC(C)C)C(=O)N[C@@H](CC(C)C)C(=O)NC(C)(C)C(=O)NC(C)(C)C(=O)NCCC(=O)NCCN(CCC)CCC` [Compound 5888, (2S)-N-[(1S)-1-[(1-{[(1S)-1-{[(1S)-1-{[1-({1-[(2-{[2-(dipropylamino)ethyl]carbamoyl}ethyl)carbamoyl]-1-methylethyl}carbamoyl)-1-methylethyl]carbamoyl}-3-methylbutyl]carbamoyl}-3-methylbutyl]carbamoyl}-1-methylethyl)carbamoyl]-3-methylbutyl]-2-{[(2S)-1-hexanoylpyrrolidin-2-yl]formamido}decanamide] (Hexanoyl-P[Gly(octyl)]L[Aib]LL[Aib][Aib][βAla]-X6), for which the IC50 in data set [1] came out at 18000 nM; in data set [2] it was 37.5 nM; in data set [3], 22700 nM; in data set [4] it was 14.8 nM; in the data set on Plasmodium falciparum it was 35900 nM. The same molecule displayed an IC50 at 70 h in data set [5] of 446 nM.

`CCCCCCCC[C@H](NC(=O)[C@@H]1CCCN1C(=O)CCCCC)C(=O)N[C@@H](CC(C)C)C(=O)NC(C)(C)C(=O)N[C@@H](CC(C)C)C(=O)N[C@@H](CC(C)C)C(=O)NC(C)(C)C(=O)NC(C)(C)C(=O)NCCC(=O)NCCN1C[C@@H](C)O[C@@H](C)C1` [Compound 5648, (2S)-N-[(1S)-1-[(1-{[(1S)-1-{[(1S)-1-({1-[(1-{[2-({2-[(2R,6S)-2,6-dimethylmorpholin-4-yl]ethyl}carbamoyl)ethyl]carbamoyl}-1-methylethyl)carbamoyl]-1-methylethyl}carbamoyl)-3-methylbutyl]carbamoyl}-3-methylbutyl]carbamoyl}-1-methylethyl)carbamoyl]-3-methylbutyl]-2-{[(2S)-1-hexanoylpyrrolidin-2-yl]formamido}decanamide] (Hexanoyl-P[Gly(octyl)]L[Aib]LL[Aib][Aib][βAla]-X11): the IC50 is 54.7 nM in data set [1]; 229 nM in data set [2]; 0.5 nM in data set [3]; 186 nM in data set [4]; 26.9 nM with Plasmodium falciparum. For the same molecule, in data set [5], the IC50 at 70 h came to 2280 nM.

Consider `CCCCCCCC[C@H](NC(=O)[C@@H]1CCCN1C(=O)CCCCC)C(=O)N[C@H](C(=O)NC(C)(C)C(=O)N[C@@H](CC(C)C)C(=O)N[C@@H](CC(C)C)C(=O)NC(C)(C)C(=O)NC(C)(C)C(=O)NCCC(=O)N[C@@H](C)CN(C)C)[C@@H](C)O` [Compound 5604, (2S)-N-[(1S,2R)-1-[(1-{[(1S)-1-{[(1S)-1-{[1-({1-[(2-{[(2S)-1-(dimethylamino)propan-2-yl]carbamoyl}ethyl)carbamoyl]-1-methylethyl}carbamoyl)-1-methylethyl]carbamoyl}-3-methylbutyl]carbamoyl}-3-methylbutyl]carbamoyl}-1-methylethyl)carbamoyl]-2-hydroxypropyl]-2-{[(2S)-1-hexanoylpyrrolidin-2-yl]formamido}decanamide] (Hexanoyl-P[Gly(octyl)]T[Aib]LL[Aib][Aib][βAla]-{NH((S)CH(Me)CH2NMe2)}), for which the IC50 in data set [1] was 0.8 nM; in data set [2], 426 nM; in data set [3], 4 nM; in data set [4], 228 nM; with Plasmodium falciparum, 3.6 nM. In data set [5], this molecule showed an IC50 at 70 h of 1290 nM.
